Legend:
Format in all cases: in vivo
hepatitis B virus (HBV) [1] = assay: Liver HBV DNA by Southern blot hybridization in HBV transgenic mice; settings: 10 mg/(kg d)
Text: Animals. Homozygous adult female and male transgenic HBV mice were used (20.6±2.8 g). The mice were originally obtained from Dr. Frank Chisari (Scripps Research Institute, La Jolla, Calif.) (Guidotti L G, Matzke B, Schaller H & Chisari F V. High-level hepatitis B virus replication in transgenic mice. J Virol 1995; 69:6158-6169) and were subsequently raised in the Biosafety Level 3 (BL-3) area of the AAALAC-accredited USU Laboratory Animal Research Center (LARC). The animals were derived from founder 1.3.32 (Guidotti L G, Matzke B, Schaller H & Chisari F V. High-level hepatitis B virus replication in transgenic mice. J Virol 1995; 69:6158-6169). This study was conducted in accordance with the approval of the Institutional Animal Care and Use Committee of Utah State University.
(§1) Experimental design. DCP was administered per os, once daily for 14 days to randomly assigned HBV transgenic mice at 23, 7.3, and 2.3 mg/(kg d). ADV was used as a positive control at 10 mg/(kg d) using the same treatment schedule and vehicle (0.4% CMC). On day 14, mice were euthanized to collect serum and liver samples to perform liver HBV DNA, liver core and serum HBe assays, serum cytokine/chemokine profiles, and IDO metabolite assays.
Liver HBV DNA assays. Southern blot hybridization and quantitative PCR (qPCR) were performed on liver tissues (Morrey J D, Motter N E, Tam B, Lay M & Fairman J. Efficacy of cationic lipid-DNA complexes (CLDC) on hepatitis B virus in transgenic mice. Antiviral Res 2008; 79:71-79). For Southern blot hybridization, the ratio of the viral DNA bands to the transgene band was used to determine the concentration of viral DNA per host DNA. This calculation was based upon the knowledge that there were 1.3 copies of the transgene present per host cell with this line of transgenic mice. The transgene was used as an internal indicator to calculate the pg of HBV DNA per μg of homozygous cellular host DNA. For qPCR, the assay was run with a series of 10-fold dilutions of pooled liver DNA from HBV transgenic mice to obtain a standard curve. Mean C(t) values were obtained for duplicates of each sample. The mean C(t) values of each sample were used to obtain the log relative DNA values using a formula of the fit line of the standard curve.

HBe antigen = assay: Sera HBeAg ELISA in HBV transgenic mice; settings: females; 10 mg/(kg d)
Protocol: as §1
Sera HBeAg. Whole blood samples were obtained during necropsy by cardiac puncture, and processed for an HBeAg-specific ELISA (International Immuno Diagnostics, Foster City Calif.) (Money J D, Motter N E, Taro B, Lay M & Fairman J. Efficacy of cationic lipid-DNA complexes (CLDC) on hepatitis B virus in transgenic mice. Antiviral Res 2008; 79:71-79). Using the known PEI (Paul Ehrlich Institute) units for the calibrator, PEI units were formulated for the serial dilutions of the positive serum. A graph was generated, and extrapolation was used to assign a PEI unit value for each sample.

hepatitis B virus (HBV) [2] = assay: Liver HBV DNA by quantitative PCR in HBV transgenic mice; settings: female HBV mice; 10 mg/(kg d), per os 14 days
[3] = system: hepatitis B core antigen (HBcAg); assay: Liver HBcAg assay in HBV transgenic mice; settings: 10 mg/(kg d)
Protocol: as §1
Liver HBcAg assay. Liver biopsies were processed for detection of hepatitis B core antigen (HBcAg) (Motley J D, Motter N E, Taro B, Lay M & Fairman J. Efficacy of cationic lipid-DNA complexes (CLDC) on hepatitis B virus in transgenic mice. Antiviral Res 2008; 79:71-79). Three different parameters were obtained from each tissue section. […] The first two parameters were obtained by counting cells surrounding central veins as follows: the total number of cells, the number of cells with stained nuclei, and the number of cells with stained cytoplasms. The identities of the samples were blinded to person counting. The stained nuclei counts or the stained cytoplasm counts were divided by the total cells. Three central vein areas were counted for each slide sample. For the third parameter, a field not in a central vein area was counted for the total number of stained nuclei. One-quarter of the field was counted. Three such fields were counted per liver section. The identity of the samples was blinded to the person reading the slides.

CC(C)(C)C(=O)OCOP(=O)(COCCn1cnc2c(N)ncnc21)OCOC(=O)C(C)(C)C [Adefovir dipivoxil, adefovir dipivoxil, reference compound]
Liver HBV DNA (Southern), Female levels (mean ± SEM) (hepatitis B virus (HBV) [1]; female): 3.5 ± 0.55 pg/µg
Liver HBV DNA (Southern), Male levels (mean ± SEM) (hepatitis B virus (HBV) [1]; male): 1.5 ± 0.37 pg/µg
HBe antigen (ELISA) versus controls (HBe antigen): significant increase
Log HBV DNA (PCR) versus controls (hepatitis B virus (HBV) [2]): significant treatment decreases
HBcAg Stained nuclei/total, Female levels (mean ± SEM) ([3]; female): 27.7 ± 3.0
HBcAg Stained nuclei/total, Male levels (mean ± SEM) ([3]; male): 14.1 ± 3.5

From US20120251495A1, “PTERIN BASED THERAPIES FOR INFLAMMATORY CONDITIONS” (priority 2008, published 2012)
